# Data: US20230320995A1, “IONIZABLE CATIONIC LIPIDS AND LIPID NANOPARTICLES” (CAPSTAN THERAPEUTICS, INC., priority 2022, published 2023)
# Tests used:
# [1] = physical-chemical properties of LNP encapsulating mCherry mRNA; assay type: physicochemical; conditions: for Hydrodynamic diameter: LNP: ionizable lipid/DSPC/cholesterol/DMG-PEG2000 50:10:38.5:1.5, mCherry mRNA, pH 7.4 Tris, 25° C.
# From the text: The mRNA was encapsulated in LNP using a self-assembly process in which an aqueous solution of mRNA at pH=3.5 is rapidly mixed with a solution of lipids dissolved in ethanol, then followed by stepwise phosphate and Tris buffer dilution and tangential flow filtration (TFF) purification. LNP composition in this study was: ionizable cationic lipid/distearoylphosphatidylcholine/cholesterol/DMG-PEG2000 (50:10:38.5:1.5 mol/mol) and were encapsulated at an N/P ratio (the ratio of positively-chargeable lipid amine (N=nitrogen) groups to negatively-charged nucleic acid phosphate (P) groups) at 6. LNPs were frozen at −80° C. […] The diameter of the nanoparticles was measured by dynamic light scattering using a Zetasizer Nano ZS (Malvern Instruments Ltd., Malvern, UK) instrument. Size measurement was carried out in pH 7.4 Tris buffer at 25° C. in relevant disposable capillary cells. A non-invasive back scatter system (NIBS) with a scattering angle of 173° was used for size measurements.
# [2] = ex vivo stability in mouse plasma; assay type: in vitro ADME; conditions: 37° C.; for ex vivo Mouse Plasm Stability % Remaining at 2 Hours: CD-1 mouse plasma, 1 μM lipid
# Procedure: To determine the stability of the disclosed lipids in mouse plasma lipid stock solution was prepared by dissolution of the lipid in isopropanol at the concentration of 5 mg/mL. A requisite volume of the lipid-isopropanol solution was then diluted to 100 μM concentration at a total volume of 10.0 mL with 50:50 (v/v) ethanol/water. Ten microliters of this 100 μM solution was spiked into 10.0 mL of mouse plasma (BioIVT, Lot MSE394920, CD-1 mouse, anticoagulant: sodium heparin, not filtered) that was prewarmed to 37° C. and stirred at 50 rpm with a magnetic stir bar. The starting concentration of lipids in plasma was thus 1 μM. Aliquots (50 μL) were taken after 0, 15, 30, 45, 60, and 120 minutes, transferred to microcentrifuge tubes and quenched with three volumes (150 μL) of ice cold acetonitrile/methanol (4:1). Positive control incubations utilized the same plasma, with Benfluorex (1 μM) as the substrate with Labetalol (1.0 μgl) as the in situ disappearance. The quenched solutions were vortexed, centrifuged for 5 minutes at 13,000 rpm, and supernatant (100 μL) transferred to a 96-well plate and diluted with water (200 μL, 0.1% FA). After filtration through a 0.45 μm 96-well filtering plate, the filtrates were analyzed by LC-MS (Waters AQUITY I-class UPLC system, ThermoScientific Vanquish UPLC system consisting of a binary pump, autosampler, and column compartment, Waters Xevo G2-XS QT of mass spectrometer; Phenomenex F5, 1.7 μm, 2.1×50 mm column). Mobile phase A was 0.1% formic acid in water, and mobile phase B was 0.1% formic acid in acetonitrile. The flow rate was 0.6 mL/min. Elution gradient was as follows: time, 0.5 min: 20% B; 0.5-2 min: 20-100% B; 2-4.8 min: 100% B; 4.8-5.45 min: 100-20% B. Mass spectrometry was in positive scanning mode from 600-1100 m/z. The peak of the molecular ion of the lipids was integrated in extracted ion chromatography (XIC) using Xcalibur software (Thermo Fisher). The relative peak area compared to T=0, after normalization by the peak area of the internal standard, was used as the percentage of the lipid remaining at each time point. T1/2 values were calculated using the first-order decay model.
# [3] = physical-chemical properties of CD5-targeted tLNP encapsulating mCherry mRNA; assay type: physicochemical; conditions: for Hydrodynamic diameter: anti-CD5 tLNP: ionizable lipid/DSPC/cholesterol/DMG-PEG 2000/DSPE-PEG2000-Maleimide 50:10:38.5:1.4:0.1
# From the text: CleanCap® mCherry 5-methoxyuridine (5moU) mRNA (L-7203) was purchased from TriLink. mRNA was encapsulated in LNP using a self-assembly process in which an aqueous solution of mRNA at pH=3.5 is rapidly mixed with a solution of lipids dissolved in ethanol, then followed by stepwise phosphate and Tris buffer dilution and TFF purification. LNP composition in this study was: ionizable cationic lipid/distearoylphosphatidylcholine/cholesterol/DMG-PEG 2000/distearoylphosphatidyl ethanolamine(DSPE)-PEG2000-Maleimide (50:10:38.5:1.4:0.1 mol/mol) and were encapsulated at an N/P ratio (the ratio of positively-chargeable […] amine (N=nitrogen) groups to negatively-charged nucleic acid phosphate (P) groups) at 6. The hydrodynamic diameter of the nanoparticles was measured by dynamic light scattering using a Zetasizer Nano ZS (Malvern Instruments Ltd., Malvern, UK) instrument.
# Next, an anti-CD5 mAb was conjugated to the above LNP to generate tLNP. Purified rat anti-mouse CD5 antibody, clone 53-7.3 (BioLegend), was coupled to LNP via N-succinimidyl S-acetylthioacetate (SATA)-maleimide conjugation chemistry. Briefly, LNPs with DSPE-PEG(2000)-maleimide incorporated were formulated and stored at 4° C. on the day of conjugation. The antibody was modified with SATA (Sigma-Aldrich) to introduce sulfhydryl groups at accessible lysine residues allowing conjugation to maleimide. SATA was deprotected using 0.5 M hydroxylamine followed by removal of the unreacted components by G-25 Sephadex Quick Spin Protein columns (Roche Applied Science, Indianapolis, IN). The reactive sulfhydryl group on the antibody was then conjugated to maleimide moieties on the LNPs using thioether conjugation chemistry. Purification was performed using Sepharose CL-4B gel filtration columns (Sigma-Aldrich). tLNPs (LNPs conjugated with a targeting antibody) were frozen at −80° C. Others have conjugated antibody to free functionalized PEG-lipid and then incorporated the conjugated lipid into pre-formed LNP.
# mRNA content was determined using a Quant-iT™ RiboGreen RNA assay kit (Invitrogen™). Encapsulation efficiency was calculated by determining the unencapsulated mRNA content by measuring the fluorescence intensity (Fi) upon the addition of RiboGreen reagent to the LNP and comparing this value to the total fluorescence intensity (Ft) of the RNA content that is obtained upon lysis of the LNPs by 1% Triton X-100, where % encapsulation=(Ft−Fi)/Ft x 100).
# The particle size (hydrodynamic diameter) and polydispersity index of the targeted lipid nanoparticles were determined using dynamic light scattering (DLS) on a Malvern Zetasizer Nano ZS (Malvern Instruments, Worcestershire, UK). Size measurement was carried out in pH 7.4 Tris buffer at 25° C. in relevant disposable capillary cells. A non-invasive back scatter system (NIBS) with a scattering angle of 173° was used for size measurements.
"Encapapsulation Efficiency ([1]; LNP 50:10:38.5:1.5, mCherry mRNA, N/P 6) [%]","PDI (polydispersity index) ([1]; LNP 50:10:38.5:1.5, mCherry mRNA, DLS)","PDI (polydispersity index) ([3]; anti-CD5 tLNP, DLS)","Encapsulation Efficiency ([3]; anti-CD5 tLNP, RiboGreen assay) [%]",Structure (SMILES),"Hydrodynamic diameter ([1]; N/P 6, DLS) [nm]",ex vivo Mouse Plasm Stability % Remaining at 2 Hours [2] [%],Hydrodynamic diameter ([3]; DLS) [nm],"half-life at 1 μM ([2]; CD-1, mouse plasma) [h]"
99,0.13,0.20,99,CCCCCCCCCC(=O)OCC(COC(=O)CCCCCCCCC)CC(=O)OCCN(CCOC(=O)CC(COC(=O)CCCCCCCCC)COC(=O)CCCCCCCCC)C(=O)NCCCN(C)C [Compound A-2],73,72,105,
,,,,CCCCCCCCC(=O)OCC(COC(=O)CCCCCCCC)CC(=O)OCCN(CCOC(=O)CC(COC(=O)CCCCCCCC)COC(=O)CCCCCCCC)C(=O)OCCN(C)C [Compound A-11],82,86,93,< 10
